Assay [1] relates to cisplatin-resistant A2780cisR cells. In words: MTT cytotoxicity test, A2780cisR. Particulars: 72 h, medium with 1% DMF (no DMF for 3a and 3b). It is filed as cell-based, Human. As for the experimental part: (§1) Human ovarian A2780 and cisplatin-resistant A2780cisR cells were maintained in Roswell Park […] (RPMI) 1640 medium supported with 10% FBS, 2 mM L-glutamine, and 100 unit/mL penicillin/streptomycin. Human lung carcinoma A549 cells, cisplatin-resistant A549cisR cells, and human breast MCF-7 cells were cultured in Dulbecco's Modified Eagle Medium (DMEM) with 10% FBS and 100 units penicillin/streptomycin.
(§2) The viability of cancer cells exposed to the compounds was evaluated by means of MTT assay. Cells were seeded in 96-well plates at a density of 3,000 cells per well and incubated until the cell confluency reached 50%. Then, the medium was removed and replaced with fresh medium containing different concentrations of complexes with 1% DMF. For complex 3a and 3b with A2780, A2780CisR, A549 and A549CisR cells, the medium used for replacement contains no DMF. After 72 h, the medium was changed to serum-free medium containing 1 mg/mL MTT. After 2 h additional incubation, the medium was removed, and DMSO (200 μL) was delivered to each well to dissolve the formed purple formazan. The absorbance at 570 nm and 730 nm of each well was measured using a microplate reader (BioTek PowerWave XS).
For orientation: Formazan colour is commonly taken as a measure of viable cells.

The test system of the next assay is human breast MCF-7 cells. In words: MTT cytotoxicity test, MCF-7. It is filed as cell-based. Particulars: 72 h, medium with 1% DMF. On the procedure: as §1, §2
Assay [2] has as its system Human ovarian A2780 cells. In words: MTT cytotoxicity test, A2780. It is filed as cell-based. Particulars: 72 h, medium with 1% DMF (no DMF for 3a and 3b). As for the experimental part: as §1, §2
The subject of assay [3] is Human lung carcinoma A549 cells. In words: MTT cytotoxicity test, A549. It is filed as cell-based. The conditions noted are these: 72 h, medium with 1% DMF (no DMF for 3a and 3b). On the procedure: as §1, §2
The subject of assay [4] is cisplatin-resistant A549cisR cells. The experiment in a line: MTT cytotoxicity test, A549cisR. It is filed as cell-based, Human. The conditions noted are these: 72 h, medium with 1% DMF (no DMF for 3a and 3b). On the procedure: as §1, §2

Usually IC50 stands for the midpoint of a concentration-inhibition curve. A higher IC50 goes with weaker potency in that assay. On to t-[Pt(acetato)2(C18H21P)2] [Complex 2d], for which the IC50 was over 2.4 µM in assay [1], over 2.4 µM in the assay on human breast MCF-7 cells, over 2.4 µM in assay [2] and over 2.7 µM in assay [3].
For [Pt(C26H24P2)2]Cl2 [Complex 3a], the IC50 in assay [4] came out at 1.3 ± 0.1 µM; in assay [1], 5 ± 1 µM; in the assay on human breast MCF-7 cells it was 7 ± 1 µM; in assay [2], 12 ± 3 µM; in assay [3], 3.6 ± 0.2 µM.
For the molecule “t-[Pt(acetato)2(C17H14NP)2] [Complex 2e]”, the IC50 is over 9.4 µM in assay [1], over 9.4 µM with human breast MCF-7 cells, over 9.4 µM in assay [2] and over 11.1 µM in assay [3].
Consider “t-[Pt(acetato)2(C18H12Cl3P)2] [Complex 2c]”, for which the IC50 stood at 4 ± 1 µM in assay [1], 18 ± 2 µM in the assay with human breast MCF-7 cells, 4 ± 1 µM in assay [2] and 24 ± 7 µM in assay [3].
On to [Pt(C54H52P2)]Cl2 [Complex 3b], for which the IC50 was found to be 0.07 ± 0.01 µM in assay [4]; 2.6 ± 0.6 µM in assay [1]; 0.2 ± 0.01 µM in the assay on human breast MCF-7 cells; 0.23 ± 0.09 µM in assay [2]; 0.48 ± 0.02 µM in assay [3].
Consider t-[Pt(acetato)2(C9H17P)2] [Complex 2a], for which the IC50 in assay [1] turned out to be 7 ± 2 µM; in the assay on human breast MCF-7 cells, 7 ± 1 µM; in assay [2], 8 ± 1 µM; in assay [3], 28 ± 3 µM.
For t-[Pt(succinato)2(PPh3)2] [Complex 1b], the IC50 worked out at 8 ± 5 µM in assay [4], 13 ± 1 µM in assay [1], 15 ± 1 µM in assay [2] and 5.3 ± 0.6 µM in assay [3].
t-[Pt(acetato)2(PPh3)2] [Complex 1a]: the IC50 worked out at 5 ± 1 µM in assay [4]; 3.3 ± 0.8 µM in assay [1]; 10 ± 1 µM in the assay with human breast MCF-7 cells; 4.3 ± 0.6 µM in assay [2]; 3.3 ± 0.6 µM in assay [3].
The corresponding values for `N.N.[Cl][Pt][Cl]` [cisplatin, reference compound] are 12 ± 1 µM, 23 ± 6 µM, 18 ± 3 µM, 2.1 ± 0.6 µM and 2 ± 0.1 µM.
Consider “t-[Pt(acetato)(benzoato)(PPh3)2] [Complex 1d]”, for which the IC50 in assay [4] amounted to 5 ± 1 µM; in assay [1] it was 3.1 ± 0.2 µM; in assay [2], 4.9 ± 0.6 µM; in assay [3], 5 ± 3 µM.
For t-[Pt(phthalato)2(PPh3)2] [Complex 1c] the same measures were 7 ± 2 µM, 10 ± 2 µM, 18 ± 3 µM and 7 ± 1 µM.
For “t-[Pt(succinato)(benzoato)(PPh3)2] [Complex 1e]” the same measures were 5 ± 2 µM, 7.2 ± 0.2 µM, 8 ± 4 µM and 5 ± 0.8 µM.
Regarding t-[Pt(acetato)2(C21H21P)2] [Complex 2b], the IC50 in assay [1] is 4 ± 1 µM; in the assay with human breast MCF-7 cells, 4 ± 0.3 µM; in assay [2], 4 ± 1 µM; in assay [3], 6.1 ± 0.3 µM.

For the origin of these results see US12304920B2, “Platinum complex, its preparation and therapeutic use” (CITY UNIVERSITY OF HONG KONG, priority 2020, dated 2025).
